# Experiments:
# [1] = Passive diffusion extraction of Trp and Kyn; format: in vitro ADME, pig; conditions: for Normalized cumulative amount Passive / Cumulative amount Passive / Flux Passive: mean ± SEM
# Method: Pig skin, purchased from a local abattoir, was gently cleaned post-sacrifice under cold running water. The skin from abdomen or from the inside of the outer ear was used as in vitro skin model. […] Skin samples were then wrapped individually in Parafilm™ and kept at −20° C. for not more than three months until use. Prior to extraction experiments, skin was cut into 4 cm^2 membranes while still being frozen. Prepared skin membranes were then left at ambient environment for 30 minutes to thaw and obtain room temperature. The integrity of each skin membrane was visually inspected against the light in order to ensure that there were no visible damages (holes). Hairs were then further trimmed with scissors and skin was gently rinsed under cold running water.
# In order to determine if reverse iontophoresis can enhance the extraction of Trp compared to their passive diffusion extraction, similar experiments were conducted without the current passage. These passive diffusion experiments were conducted using the same horizontal side-by-side cell setup in parallel to reverse iontophoresis experiments in order to ensure identical conditions. In line with reverse iontophoretic experiment, after the 6-hour sampling, subdermal compartment was emptied and experiment was allowed to continue for another 18 hours. Passive diffusion experiments were repeated four times (n=4).
# Prior to HPLC-UV analysis, samples were thawed and vortexed.
# Anodal, cathodal and passive fluxes of Trp and Kyn were directly calculated from the amount (mol) extracted at each sampling interval and normalized for the surface area available for extraction (0.785 cm^2) and duration of the interval (in hours). The 6-hour flux values were used for the analysis of transport direction as well for comparison between reverse iontophoretic and passive extraction efficiency. The physiochemical properties of both endogenous substances were estimated. In order to compare results, the enhancement ratio (ER) was determined after 6 hours as […]
# [2] = Reverse iontophoretic extraction of Trp and Kyn in side-by-side cells; format: in vitro ADME, pig; conditions: for Flux at anode / Flux at cathode / Cumulative amount at anode / Cumulative amount at cathode: mean ± SEM
# Method: Due to the small molecular weight, Trp and Kyn are good candidates for non-invasive monitoring as their passive permeation across the skin membrane is not restricted by the SC's ‘500 Dalton’ rule. Moreover, because of their polar nature (zwitterionic at neutral pH), these compounds are perfect candidates for extraction by reverse iontophoresis. The non-invasive reverse iontophoretic sampling of Trp and Kyn was conducted in vitro using side-by-side cells consisting of two receptor compartments (anodal & cathodal) and a subdermal compartment. Reverse iontophoretic and passive extraction experiments were performed using identical experimental conditions. […] The reverse iontophoretic extraction was performed by application of a constant current 0.3 mA ([…]) for 6 hours in total. Sampling was performed every hour by withdrawing 1 mL of receptor solution and the amount of permeated compound was determined by HPLC-UV. […] The reservoir consists primarily of amino acids and amino acid derivatives originating from proteolysis of filaggrin.
# Pig skin, purchased from a local abattoir, was gently cleaned post-sacrifice under cold running water. The skin from abdomen or from the inside of the outer ear was used as in vitro skin model. The hair was trimmed and the skin was dermatomed to a final thickness of 750 μm (Dermatome, Integra LifeSciences, Plainsboro, NJ, USA). Skin samples were then wrapped individually in Parafilm™ and kept at −20° C. for not more than three months until use. Prior to extraction experiments, skin was cut into 4 cm^2 membranes while still being frozen. Prepared skin membranes were then left at ambient environment for 30 minutes to thaw and obtain room temperature. The integrity of each skin membrane was visually inspected against the light in order to ensure that there were no visible damages (holes). Hairs were then further trimmed with scissors and skin was gently rinsed under cold running water.
# The Ag/AgCl electrode couple were preferred over platinum because it avoids the sharp decrease in the pH of the solution as their electrochemistry occurs at voltages considerably lower than those required for electrolysis of water. The electrodes were prepared by making a small loop at one of the ends of the silver wire and dipping it into the molten silver chloride in order to coat the loop with AgCl. After cooling, anodal electrodes were prepared by conditioning AgCl coated loops overnight against a platinum wire anode (0.2 mm in diameter, Sigma), at 0.3 mA with 50 mM NaCl as an electrolyte solution resulting in the formation of a layer of silver on the outer surface of the electrodes.
# where zp, up, cp are the charge, mobility and concentration of the permeant, ID is the current density (=I/A), F is the Faraday's constant and summation includes all the species in solution that can carry the charge, v is the solvent velocity. Electromigration is a direct cause of current application, which leads to a formation of an electric field across the skin.
# [3] = pH 4.0, 24 h amount minus first 6 hours
# [4] = pH 7.4, 24 h amount minus first 6 hours
# [5] = pH 9.0, 24 h amount minus first 6 hours
# [6] = receptor pH 4.0, donor pH 7.4, after 6 h
# [7] = receptor pH 7.4, donor pH 7.4, after 6 h
# [8] = receptor pH 9.0, donor pH 7.4, after 6 h
# [9] = pH 7.4, after 4 hours of iontophoresis
# [10] = receptor pH 4.0, after 6 hours of iontophoresis
# [11] = receptor pH 7.4, after 6 hours of iontophoresis
# [12] = receptor pH 9.0, after 6 hours of iontophoresis
# [13] = pH 7.4, after the first hour of current application
# [14] = receptor pH 4.0, iontophoretic vs passive cumulative amount after 6 hours
# [15] = receptor pH 7.4, iontophoretic vs passive cumulative amount after 6 hours
# [16] = receptor pH 9.0, iontophoretic vs passive cumulative amount after 6 hours
smiles,measurement,setting,value
"Nc1ccccc1C(=O)C[C@H](N)C(=O)O [Kyn, L-kynurenine]",Normalized cumulative amount Passive,[1]; [3],0.27 ± 0.27 nmol/cm^2
same,Normalized cumulative amount Passive,[1]; [4],2.59 ± 1.50 nmol/cm^2
same,Normalized cumulative amount Passive,[1]; [5],3.81 ± 0.93 nmol/cm^2
same,Cumulative amount Passive,[1]; [6],<LOQ
same,Cumulative amount Passive,[1]; [7],<LOQ
same,Cumulative amount Passive,[1]; [8],<LOQ
same,cumulative amount extracted towards the cathode (QC),[2]; [9],2.50±0.44 nmol/cm^2
same,Flux at anode,[2]; [10],0.18 ± 0.09 nmol/(h · cm^2)
same,Flux at cathode,[2]; [10],0.93 ± 0.23 nmol/(h · cm^2)
same,Cumulative amount at anode,[2]; [6],0.91 ± 0.44 nmol/cm^2
same,Cumulative amount at cathode,[2]; [6],3.76 ± 0.89 nmol/cm^2
same,Flux at anode,[2]; [11],0.11 ± 0.08 nmol/(h · cm^2)
same,Flux at cathode,[2]; [11],1.88 ± 0.18 nmol/(h · cm^2)
same,Cumulative amount at anode,[2]; [7],0.25 ± 0.17 nmol/cm^2
same,Cumulative amount at cathode,[2]; [7],5.97 ± 0.73 nmol/cm^2
same,Flux at anode,[2]; [12],0.52 ± 0.23 nmol/(h · cm^2)
same,Flux at cathode,[2]; [12],1.99 ± 0.16 nmol/(h · cm^2)
same,Cumulative amount at anode,[2]; [8],0.64 ± 0.27 nmol/cm^2
same,Cumulative amount at cathode,[2]; [8],6.38 ± 0.62 nmol/cm^2
"N[C@@H](Cc1c[nH]c2ccccc12)C(=O)O [Trp, L-tryptophan]",Normalized cumulative amount Passive,[1]; [3],0.49 ± 0.49 nmol/cm^2
same,Ratio (Trp/Kyn) Passive,"[1]; pH 4.0, from normalized cumulative amounts",1.81
same,Normalized cumulative amount Passive,[1]; [4],2.87 ± 1.66 nmol/cm^2
same,cumulative amount by passive diffusion (QP),"[1]; pH 7.4, after 5 hours",0.54±0.12 nmol/cm^2
same,cumulative amount by passive diffusion (QP),"[1]; pH 7.4, after the first hour",0.30±0.04 nmol/cm^2
same,Ratio (Trp/Kyn) Passive,"[1]; pH 7.4, from normalized cumulative amounts",1.27
same,Normalized cumulative amount Passive,[1]; [5],3.50 ± 0.48 nmol/cm^2
same,Ratio (Trp/Kyn) Passive,"[1]; pH 9.0, from normalized cumulative amounts",1.22 ± 0.19
same,Flux Passive,"[1]; receptor pH 4.0, after 6 hours",0.01 ± 0.01 nmol/(h · cm^2)
same,Cumulative amount Passive,[1]; [6],0.18±0.18 nmol/cm^2
same,Flux Passive,"[1]; receptor pH 7.4, after 6 hours",0.07 ± 0.03 nmol/(h · cm^2)
same,Cumulative amount Passive,[1]; [7],0.62±0.13 nmol/cm^2
same,Flux Passive,"[1]; receptor pH 9.0, after 6 hours",0.10 ± 0.03 nmol/(h · cm^2)
same,Cumulative amount Passive,[1]; [8],0.72±0.09 nmol/cm^2
same,cumulative amount extracted towards the cathode (QC),[2]; [9],3.59±0.43 nmol/cm^2
same,cumulative amount extracted to the anode (QA),"[2]; pH 7.4, after 5 hours of current application",1.03±0.08 nmol/cm^2
same,"cumulative amount at cathode, times higher than at anode","[2]; pH 7.4, after 6 hours",~6
same,cumulative amount extracted to the anode (QA),[2]; [13],0.28±0.06 nmol/cm^2
same,cumulative amount extracted towards the cathode (QC),[2]; [13],0.49±0.04 nmol/cm^2
same,Flux at anode,[2]; [10],0.35 ± 0.12 nmol/(h · cm^2)
same,Flux at cathode,[2]; [10],1.03 ± 0.21 nmol/(h · cm^2)
same,Cumulative amount at anode,[2]; [6],2.01 ± 0.65 nmol/cm^2
same,Cumulative amount at cathode,[2]; [6],4.39 ± 0.87 nmol/cm^2
same,Ratio Trp/Kyn (after 6 h),"[2]; receptor pH 4.0, from cathode fluxes",1.01
same,Ratio Trp/Kyn (after 6 h),"[2]; receptor pH 4.0, from cumulative amounts at the cathode",1.35 ± 0.24
same,ER Anode,[2]; [14],11
same,ER Cathode,[2]; [14],24
same,Flux at anode,[2]; [11],0.24 ± 0.07 nmol/(h · cm^2)
same,Flux at cathode,[2]; [11],2.02 ± 0.19 nmol/(h · cm^2)
same,Cumulative amount at anode,[2]; [7],1.27±0.13 nmol/cm^2
same,Cumulative amount at cathode,[2]; [7],7.36±0.75 nmol/cm^2
same,Ratio Trp/Kyn (after 6 h),"[2]; receptor pH 7.4, from cathode fluxes",1.07
same,Ratio Trp/Kyn (after 6 h),"[2]; receptor pH 7.4, from cumulative amounts at the cathode",1.25 ± 0.03
same,ER Anode,[2]; [15],2
same,ER Cathode,[2]; [15],~12
same,Flux at anode,[2]; [12],0.69 ± 0.23 nmol/(h · cm^2)
same,Flux at cathode,[2]; [12],2.32 ± 0.15 nmol/(h · cm^2)
same,Cumulative amount at anode,[2]; [8],1.62 ± 0.26 nmol/cm^2
same,Cumulative amount at cathode,[2]; [8],8.15 ± 0.59 nmol/cm^2
same,Ratio Trp/Kyn (after 6 h),"[2]; receptor pH 9.0, from cathode fluxes",1.17
same,Ratio Trp/Kyn (after 6 h),"[2]; receptor pH 9.0, from cumulative amounts at the cathode",1.29 ± 0.03
same,ER Anode,[2]; [16],2
same,ER Cathode,[2]; [16],11

# From patent US20250325256A1, “LIPID PATCH” (SENSACH AB, priority 2021, published 2025)
